These results are taken from patent US10759785B2, “Compounds” (ENTERPRISE THERAPEUTICS LIMITED, priority 2016, dated 2020).

Common to all, as to assay type: in vitro ADME
Series [1] can be described thus: Microsomal stability (human microsomes). The following applies: pH 7.4, 1 μM test compound, 0.5 mg/mL protein, 1 mM NADPH, 37° C., read-out: Averages. Mic Half Life Human. As for the experimental part:
(§1) Example 28—Microsomal Stability
(§2) Microsomes (rat and human) were obtained from Bioreclamation. Test compound stock solutions in DMSO (10 mM) were diluted with DMSO to 2 mM. Further dilution was completed to achieve a 100 μM stock (final concentrations; 91.5% Acetonitrile: 8.5% DMSO). Final test compound concentration in incubation was 1 μM (<0.1% DMSO). The following probe substrates were used: verapamil, propranolol, metoprolol and phenacetin (rat) at a final incubation concentration of 1 μM. Assay buffer—Solution 1: 17.4 g potassium phosphate dibasic anhydrous (K2HPO4, 0.1 M) dissolved in 1 L deionised water. Solution 2: 13.6 g potassium phosphate monobasic anhydrous (KH2PO4, 0.1 M) dissolved in 1 L deionised water. Potassium phosphate solutions 1 and 2 were combined to form a pH 7.42 solution at 37° C. pH 7.4 with 2 mM magnesium chloride. NADPH (10 mM)—diluted in deionised water. Frozen microsomes were thawed at 37° C. Microsomes were diluted in assay buffer to achieve a final protein concentration of 0.5 mg/mL and 1 mM NADPH. The following procedure was completed on a Perkin Elmer Janus robotic platform in 96 well format: The microsomal incubation plate was transferred to a heater shaker at 300 rpm and solution heated to 37° C. for 10 min pre-warm. A no co-factor control at 0 and 45 min and one replicates of each test compound was included in every assay. Microsomes were incubated at 37° C., on a shaker set at 300 rpm throughout the assay. At each timepoint (0, 5, 15, 30, 45 min) 50 μL of sample was removed from the 96-well and added to 200 μL of quench solution (acetonitrile containing 0.1% formic acid and imipramine/labetalol, 200 nM). Samples were diluted 1:1 with water using the Janus Robot and analysed by LC-MS/MS.

Series [2] in a line: Microsomal stability (rat microsomes). The following applies: pH 7.4, 1 μM test compound, 0.5 mg/mL protein, 1 mM NADPH, 37° C., read-out: Averages. Mic Half Life Rat. Here is the method:
as §1, §2

A short description of series [3]: Hepatic stability (human cryopreserved hepatocytes). The settings on record: cryopreserved hepatocytes, pH 7.4, 1 μM test compound, 1×10^6 cells/mL, 37° C., read-out: Averages. Hep Half Life Human. Here is the method: (§3) Example 29—Hepatic Stability
(§4) Cryopreserved hepatocytes (rat and human) were obtained from Bioreclamation. Test compound stock solutions in DMSO (10 mM) were diluted with DMSO to 4 mM. Further dilution was completed to achieve a 100 μM stock (5 μL of 4 mM in 195 μL of 50:50 DMSO:hepatocyte buffer). Final test compound concentration in incubation was 1 μM. The following probe substrates were used: testosterone and carbamazepine at a final incubation concentration of 1 μM. Hepatocyte buffer was prepared (Williams E media containing phenol red and Glutamax™, 15 mM HEPES, warmed to 37° C., pH7.4 with NaOH). Cells were removed from liquid nitrogen, thawed in a waterbath, decanted into 50 mL of pre-warmed Cryopreserved Hepatocyte Recovery Media (LifeTechnologies) and centrifuged. Supernatant fraction was removed, cells were re-suspended in hepatocyte buffer and counted by trypan blue exclusion. Cell viability of >80% was required for all assays. Cells were re-suspended to 1×10^6/mL and 198 μL cell suspension added to each 96-well. 2 μL of 100 μM compound stock solution was added to relevant wells to initiate the incubation. A no cell control and two replicates of each test compound was included in every assay. Cells were incubated at 37° C., on a shaker set at 300 rpm. At each timepoint (0, 15, 30, 45, 60, 90 min) 20 μL of sample was removed from the 96-well and added to 80 μL of quench solution (acetonitrile containing 0.1% formic acid and imipramine/labetalol, 200 nM). Samples were diluted 1:1 with water using the Janus Robot and analysed by LC-MS/MS.

Series [4] is described as follows: Hepatic stability (rat cryopreserved hepatocytes). The following applies: pH 7.4, 1 μM test compound, 1×10^6 cells/mL, 37° C., read-out: Averages. Hep Half Life Rat. As for the experimental part: as §3, §4

Where a name gives a salt, the structure may show the parent alone. Some results are limits rather than exact numbers.

For `CCn1c(CNC(=O)c2nc(Br)cnc2N)[n+](CC)c2ccc(-c3cnn(C4CCNCC4)c3)cc21.Cl.[I-]` [Example 21, 2-{[(3-amino-6-bromopyrazin-2-yl)formamido]methyl}-1,3-diethyl-6-[1-(piperidin-4-yl)-1H-pyrazol-4-yl]-1H-1,3-benzodiazol-3-ium hydrochloride iodide], the half-life at 1 μM turned out to be 1.53 h in series [1], 1.28 h in series [2], 1.1 h in series [3] and 0.417 h in series [4].

For `CCn1c(CNC(=O)c2nc(Br)cnc2N)[n+](CC)c2ccc(-c3cnn(C4CCN(C(=N)N)CC4)c3)cc21.O=CO.O=C[O-]` [Example 22, 2-{[(3-amino-6-bromopyrazin-2-yl)formamido]methyl}-6-[1-(1-carbamimidoylpiperidin-4-yl)-1H-pyrazol-4-yl]-1,3-diethyl-1H-1,3-benzodiazol-3-ium formic acid formate], the half-life at 1 μM was > 2.3 h in series [1], > 2.3 h in series [2], 1.12 h in series [3] and 1.5 h in series [4].

As to `CCn1c(CNC(=O)c2nc(Br)cnc2N)[n+](CC)c2ccc(-c3cnn(C4CCN(C[C@H](O)[C@@H](O)[C@H](O)[C@H](O)CO)CC4)c3)cc21.O=CO.[Cl-]` [Example 23, 2-{[(3-amino-6-bromopyrazin-2-yl)formamido]methyl}-1,3-diethyl-6-(1-{1-[(2S,3R,4R,5R)-2,3,4,5,6-pentahydroxyhexyl]piperidin-4-yl}-1H-pyrazol-4-yl)-1H-1,3-benzodiazol-3-ium formic acid chloride], the half-life at 1 μM in series [1] was > 2.3 h; in series [2] it was > 2.3 h; in series [3] it was 1.2 h; in series [4], 2.07 h.

For `CCn1c(CNC(=O)c2nc(Br)cnc2N)[n+](CC)c2ccc(OCCNC(=O)OC(C)(C)C)cc21.O=C[O-]` [Example 24, 2-{[(3-amino-6-bromopyrazin-2-yl)formamido]methyl}-6-(2-{[(tert-butoxy)carbonyl]amino}ethoxy)-1,3-diethyl-1H-1,3-benzodiazol-3-ium formate], the half-life at 1 μM in series [1] stood at 0.983 h; in series [2], 0.617 h; in series [3], 1.22 h; in series [4], 0.7 h.

`CCn1c(CNC(=O)c2nc(Br)cnc2N)[n+](CC)c2ccc(OCCN)cc21.Cl.[Cl-]` [Example 25, 2-{[(3-Amino-6-bromopyrazin-2-yl)formamido]methyl}-6-(2-aminoethoxy)-1,3-diethyl-1H-1,3-benzodiazol-3-ium hydrochloride chloride]: the half-life at 1 μM in series [1] is > 2.3 h; in series [2] it was > 2.3 h; in series [3], > 4 h; in series [4], 0.983 h.

Consider `CCn1c(CNC(=O)c2nc(C#N)cnc2N)[n+](CC)c2ccc(OC)cc21` [Example 26, 2-{[(3-amino-6-cyanopyrazin-2-yl)formamido]methyl}-1,3-diethyl-6-methoxy-1H-1,3-benzodiazol-3-ium formate], for which the half-life at 1 μM in series [1] was > 2.3 h; in series [2] it was < 0.05 h; in series [3], 3.87 h; in series [4], 0.383 h.

One may read the half-life as the time in which the quantity being followed falls by half.
